Assay results as given in patent US11077090B2, “Compounds and compositions and uses thereof” (Sunovion Pharmaceuticals Inc., priority 2016, dated 2021).

Assays:
Assay type in all cases: in vivo
Male C57Bl/6J mice [1] = experiment: Prepulse inhibition of startle (PPI); parameters: key: −: No change in PPI; +: Significant increase in PPI at one pre-pulse intensity (P < 0.05 vs vehicle); ++: Significant increase in PPI at two pre-pulse intensities (P < 0.05 vs vehicle); +++: Significant increase in PPI at three pre-pulse intensities (P < 0.05 vs vehicle)
From the text: The acoustic startle is an unconditioned reflex response to an external auditory stimulus. Prepulse inhibition of startle (PPI) refers to the reduction in the startle response caused by the presentation of a low-intensity auditory stimulus prior to the startle stimulus. The PPI paradigm is used for the study of schizophrenia and antipsychotic action due to the similarities between the results from human and rodent studies. PPI has been used as a tool for the assessment of deficiencies in sensory-motor gating observed in schizophrenia and to screen for potential antipsychotic drugs. Various psychotomimetic drugs, such as phencyclidine (PCP), can disrupt PPI. In mice, antipsychotic drugs such as haloperidol can increase PPI and clozapine can reverse the disruption of PPI induced by PCP.
Male C57Bl/6J mice from Jackson Laboratories were placed in the PPI chambers (Med Associates) for a 5 min session of white noise (70 dB) habituation. After the habituation period, the test session was initiated. The session started with a habituation block of 6 presentations of the startle stimulus alone, followed by 10 PPI blocks, each of which consisted of 6 different types of trials. Trial types were: ‘null’ (no stimuli), ‘startle’ (120 dB), ‘startle plus prepulse’ (4, 8, and 12 dB over background noise, i.e., 74, 78, or 82 dB) and ‘prepulse’ (82 dB). Trial types were presented in a random order within each block. Each trial started with a 50 ms stimulus-free period during which baseline movements were recorded. This was followed by a subsequent 20 ms period during which the prepulse stimulus was presented and responses to the prepulse measured. After a further 100 ms period, the startle stimulus was presented for 40 ms and responses recorded for 100 ms from startle onset. Responses were sampled every ms. The inter-trial interval was variable with an average of 15 s (range from 10 to 20 s). In ‘startle’ trials, the basic auditory startle response was measured. The basic startle response was calculated as the mean startle response of all ‘startle’ trials (i.e., excluding the first habituation block). In ‘startle plus prepulse’ trials, the degree of inhibition of the normal startle was calculated and expressed as a percentage of the basic startle response.
Mice were treated with vehicle or test compound orally by gavage, or haloperidol (1 mg/kg, i.p.), in 10 mL/kg injection volumes, 30 min prior to PPI test. The PPI enclosures were cleaned following each test. An increase in the percent PPI relative to the vehicle condition indicates an antipsychotic drug-like response.

Male C57Bl/6J mice [2] = experiment: Marble burying test; parameters: key: −: No reduction in number of marbles buried; +: Significant reduction in number of marbles buried (P < 0.05 vs vehicle)
Method in brief: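 Mice (n=10/group) dosed i.p. or p.o. with compound or water 30 min before a 30-min session in cages with twenty marbles; marbles at least two-thirds covered scored buried. Distance traveled tracked by overhead camera for locomotion; fewer marbles buried than vehicle indicates anxiolytic-like effect.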

Male C57Bl/6J mice [3] = experiment: Amphetamine induced hyperlocomotion assay; parameters: key: #: Significant increase in total distance traveled (P < 0.05 vs vehicle + AMPH group); −: No change in total distance traveled; Significant decrease in total distance traveled (P < 0.05 vs vehicle + AMPH group)
Protocol: Psychostimulants such as amphetamine (AMPH) are frequently used to induce or mimic a manic-like or psychotic-like state. AMPH administration to rodents increases horizontal locomotion, vertical rearing and repetitive stereotyped behaviors, and typical antipsychotic drugs, such as haloperidol, can reduce these behaviors. The antimanic/antipsychotic-like effects of test compounds were evaluated in male C57Bl/6J mice from Jackson Laboratories Mice were acclimatized to the experimental room for at least 1 hour prior to testing. The mice (n=10 per group) were administered vehicle or test compound orally by gavage (10 mL/kg injection volume) and placed individually in the novel open field (OF) chambers (Med Associates) for 30 minutes of baseline activity measurement. Mice were then injected with either water or AMPH (4 mg/kg, i.p., 10 mL/kg) and placed back in the same individual OF chambers for a 60-minute testing session during which the effects of test compounds on stimulant-induced behaviors (total distance traveled, rearing and stereotypy) were measured. A reduction in total distance traveled relative to the vehicle+AMPH condition indicates an antimanic/antipsychotic drug-like response.

| SMILES | Effect on Pre-Pulse Inhibition (PPI) (Male C57Bl/6J mice [1]; 10 mg/kg PO) | Effect on Pre-Pulse Inhibition (PPI) (Male C57Bl/6J mice [1]; 30 mg/kg PO) | Marbles Buried (Male C57Bl/6J mice [2]; 3 mg/kg (p.o.)) | Marbles Buried (Male C57Bl/6J mice [2]; 10 mg/kg (p.o.)) | Marbles Buried (Male C57Bl/6J mice [2]; 30 mg/kg (p.o.)) | Total Distance Traveled (Male C57Bl/6J mice [3]; 10 mg/kg PO Compound + AMPH) | Total Distance Traveled (Male C57Bl/6J mice [3]; 30 mg/kg PO Compound + AMPH) | Effect on Pre-Pulse Inhibition (PPI) (Male C57Bl/6J mice [1]; 3 mg/kg PO) | Total Distance Traveled (Male C57Bl/6J mice [3]; 3 mg/kg PO Compound + AMPH) |
| --- | --- | --- | --- | --- | --- | --- | --- | --- | --- |
| N[C@@H]1COCc2ccc3ccccc3c21 (single isomer, unassigned) [Example 117] | − | +++ | + | + | + | − | + |  |  |
| Cc1ccc2c(c1)[C@H](N)COC2 [Example 123] | − | − |  | + | + | − | + |  |  |
| Cc1ccc2c(c1)[C@@H](N)COC2 [Example 124] | − | − |  | + | + | − | + |  |  |
| N[C@H]1COCc2ccc(F)cc21 (single isomer, unassigned) [Example 114] | − | − | + | + | + | − | + |  |  |
| N[C@H]1COCc2ccc3ccccc3c21 (single isomer, unassigned) [Example 118] | − | − |  | + | + | − | + |  |  |
| N[C@@H]1COCc2ccccc21 (single isomer, unassigned) [Example 111] | − | +++ | − | + | + | − | + | − | # |
